Measurements as given in ChEMBL document CHEMBL3045870, “Some new thiazolyl thiazolidinedione derivatives as aldose reductase inhibitors” (Med Chem Res, 2007).

Target: Aldo-keto reductase family 1 member B1 (Rattus norvegicus) (UniProt P07943)
Test: Inhibition of Rattus norvegicus (rat) kidney aldose reductase using D-L-glyceraldehyde as substRattus norvegicus (rat) e assessed as decrease in NADPH level at 10^-4 M measured for 5 min by spectrophotometric analysis

Row | Structure (SMILES) | inhibition
1 | O=C1S/C(=C\c2sc(N3CCCCC3)nc2Cl)C(=O)N1Cc1ccc(F)cc1 | 0%
2 | O=C1S/C(=C\c2sc(N3CCCCC3)nc2Cl)C(=O)N1Cc1ccc(Cl)cc1Cl | 3.27%
3 | O=C1S/C(=C\c2sc(N3CCCCC3)nc2Cl)C(=O)N1Cc1ccc(Cl)cc1 | 0.62%
4 | O=C1S/C(=C\c2sc(N3CCCCC3)nc2Cl)C(=O)N1Cc1ccc(Br)cc1 | 0.62%
5 | O=C1S/C(=C\c2sc(N3CCCCC3)nc2Cl)C(=O)N1Cc1ccc([N+](=O)[O-])cc1 | 2.49%
6 | O=C1S/C(=C\c2sc(SCc3ccc(Cl)cc3)nc2Cl)C(=O)N1Cc1ccc(Cl)cc1Cl | 1.56%
7 | O=C1S/C(=C\c2sc(N3CCCCC3)nc2Cl)C(=O)N1Cc1ccccc1 | 0%

Now from value to molecule:

Row | inhibition | Structure (SMILES)
8 | 0% | O=C1S/C(=C\c2sc(SCc3ccc(Cl)cc3)nc2Cl)C(=O)N1Cc1ccc([N+](=O)[O-])cc1
9 | 0% | O=C1S/C(=C\c2sc(SCc3ccc(Cl)cc3)nc2Cl)C(=O)N1Cc1ccc(Br)cc1
10 | 0% | O=C1S/C(=C\c2sc(SCc3ccc(Cl)cc3)nc2Cl)C(=O)N1Cc1ccc(F)cc1
11 | 0% | O=C1S/C(=C\c2sc(SCc3ccc(Cl)cc3)nc2Cl)C(=O)N1Cc1ccc(Cl)cc1
12 | 0% | O=C1S/C(=C\c2sc(SCc3ccc(Cl)cc3)nc2Cl)C(=O)N1Cc1ccccc1
